Experiment [1] has as its target Proto-oncogene tyrosine-protein kinase receptor Ret (Homo sapiens, UniProt P07949, G810R). Briefly: Inhibition of human RET kinase-G810R mutant using RRRRRRRRRRRVYSTDYYRLFNPS as substrate in presence of [gamma33P]-ATP and 10 uM ATP by radiometric HotSpot assay.
For experiment [2], the target named is Proto-oncogene tyrosine-protein kinase receptor Ret (Homo sapiens, UniProt P07949, V804M). In words: Inhibition of human RET kinase-V804M mutant using RRRRRRRRRRRVYSTDYYRLFNPS as substrate in presence of [gamma33P]-ATP and 10 uM ATP by radiometric HotSpot assay.
Sequence of Proto-oncogene tyrosine-protein kinase receptor Ret (Homo sapiens, UniProt P07949, V804M) (P07949 29-1114 V804M limits assumed): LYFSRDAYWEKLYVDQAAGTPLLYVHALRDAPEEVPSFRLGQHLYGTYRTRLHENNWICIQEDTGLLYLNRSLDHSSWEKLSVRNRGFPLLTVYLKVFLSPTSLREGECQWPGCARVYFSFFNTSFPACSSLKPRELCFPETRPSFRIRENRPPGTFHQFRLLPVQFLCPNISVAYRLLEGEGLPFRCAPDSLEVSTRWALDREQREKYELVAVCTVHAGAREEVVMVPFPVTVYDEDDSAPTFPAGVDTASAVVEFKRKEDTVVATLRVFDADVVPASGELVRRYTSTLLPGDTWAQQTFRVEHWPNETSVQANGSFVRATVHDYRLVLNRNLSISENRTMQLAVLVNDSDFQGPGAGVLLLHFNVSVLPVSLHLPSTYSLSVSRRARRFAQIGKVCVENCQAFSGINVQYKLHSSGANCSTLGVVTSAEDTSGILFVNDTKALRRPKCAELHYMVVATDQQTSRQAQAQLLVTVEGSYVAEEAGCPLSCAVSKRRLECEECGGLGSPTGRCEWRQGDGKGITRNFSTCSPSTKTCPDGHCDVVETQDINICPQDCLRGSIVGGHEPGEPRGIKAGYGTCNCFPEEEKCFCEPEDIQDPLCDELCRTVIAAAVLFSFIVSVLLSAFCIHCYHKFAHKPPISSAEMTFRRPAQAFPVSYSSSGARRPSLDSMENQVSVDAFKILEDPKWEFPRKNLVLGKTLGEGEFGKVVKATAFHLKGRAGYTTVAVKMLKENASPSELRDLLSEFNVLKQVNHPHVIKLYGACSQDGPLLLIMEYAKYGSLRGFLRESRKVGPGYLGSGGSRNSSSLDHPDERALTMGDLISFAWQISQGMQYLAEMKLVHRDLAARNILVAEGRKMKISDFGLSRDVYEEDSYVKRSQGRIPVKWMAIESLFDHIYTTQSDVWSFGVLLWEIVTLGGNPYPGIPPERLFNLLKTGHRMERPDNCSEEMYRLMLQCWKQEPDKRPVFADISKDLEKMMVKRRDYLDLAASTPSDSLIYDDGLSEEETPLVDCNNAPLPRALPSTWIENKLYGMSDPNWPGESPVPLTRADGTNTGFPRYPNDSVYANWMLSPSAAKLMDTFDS
Experiment [3] is described as follows: Inhibition of human […]-RET kinase-V804M mutant in presence of [gamma33P]-ATP and 10 uM ATP by radiometric HotSpot assay.
Experiment [4] addresses Proto-oncogene tyrosine-protein kinase receptor Ret (Homo sapiens, UniProt P07949). In words: Inhibition of human wild type RET kinase using RRRRRRRRRRRVYSTDYYRLFNPS as substrate in presence of [gamma33P]-ATP and 10 uM ATP by radiometric HotSpot assay.
The target of experiment [5] is Kinesin-1 heavy chain/ Tyrosine-protein kinase receptor RET (Homo sapiens, UniProt P07949). Briefly: Inhibition of human […]-RET kinase in presence of [gamma33P]-ATP and 10 uM ATP by radiometric HotSpot assay. Type of experiment: protein assay.
Sequence of Kinesin-1 heavy chain/ Tyrosine-protein kinase receptor RET (P07949 whole entry, the tested form may be a part): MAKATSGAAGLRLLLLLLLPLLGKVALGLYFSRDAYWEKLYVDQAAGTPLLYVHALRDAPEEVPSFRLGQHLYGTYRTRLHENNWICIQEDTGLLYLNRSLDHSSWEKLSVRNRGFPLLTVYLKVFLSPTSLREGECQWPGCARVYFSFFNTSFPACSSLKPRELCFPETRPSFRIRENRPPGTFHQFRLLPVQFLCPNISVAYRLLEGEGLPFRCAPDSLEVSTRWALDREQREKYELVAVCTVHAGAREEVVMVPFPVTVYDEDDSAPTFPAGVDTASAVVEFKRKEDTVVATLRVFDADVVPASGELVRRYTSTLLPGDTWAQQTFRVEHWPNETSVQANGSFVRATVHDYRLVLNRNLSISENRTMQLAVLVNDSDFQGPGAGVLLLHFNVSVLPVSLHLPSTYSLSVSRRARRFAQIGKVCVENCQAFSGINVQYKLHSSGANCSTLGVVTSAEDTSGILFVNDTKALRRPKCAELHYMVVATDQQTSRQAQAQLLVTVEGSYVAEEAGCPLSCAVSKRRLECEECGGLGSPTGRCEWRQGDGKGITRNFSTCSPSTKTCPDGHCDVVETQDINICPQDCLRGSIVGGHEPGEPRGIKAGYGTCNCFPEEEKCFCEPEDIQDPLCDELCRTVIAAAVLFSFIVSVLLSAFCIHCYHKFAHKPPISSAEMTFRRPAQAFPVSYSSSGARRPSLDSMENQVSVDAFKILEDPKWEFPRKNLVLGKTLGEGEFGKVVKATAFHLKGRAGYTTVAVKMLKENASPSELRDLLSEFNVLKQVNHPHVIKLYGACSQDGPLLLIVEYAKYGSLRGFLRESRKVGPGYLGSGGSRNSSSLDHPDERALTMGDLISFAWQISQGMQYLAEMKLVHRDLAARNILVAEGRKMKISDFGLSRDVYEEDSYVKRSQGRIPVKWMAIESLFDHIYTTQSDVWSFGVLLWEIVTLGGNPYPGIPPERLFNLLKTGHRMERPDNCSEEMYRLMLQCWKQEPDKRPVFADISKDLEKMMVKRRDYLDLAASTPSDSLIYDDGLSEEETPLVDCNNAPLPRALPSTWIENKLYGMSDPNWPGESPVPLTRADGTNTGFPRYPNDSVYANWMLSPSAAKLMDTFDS
Sequence of Kinesin-1 heavy chain/ Tyrosine-protein kinase receptor RET (P33176 whole entry, further chain, the tested form may be a part): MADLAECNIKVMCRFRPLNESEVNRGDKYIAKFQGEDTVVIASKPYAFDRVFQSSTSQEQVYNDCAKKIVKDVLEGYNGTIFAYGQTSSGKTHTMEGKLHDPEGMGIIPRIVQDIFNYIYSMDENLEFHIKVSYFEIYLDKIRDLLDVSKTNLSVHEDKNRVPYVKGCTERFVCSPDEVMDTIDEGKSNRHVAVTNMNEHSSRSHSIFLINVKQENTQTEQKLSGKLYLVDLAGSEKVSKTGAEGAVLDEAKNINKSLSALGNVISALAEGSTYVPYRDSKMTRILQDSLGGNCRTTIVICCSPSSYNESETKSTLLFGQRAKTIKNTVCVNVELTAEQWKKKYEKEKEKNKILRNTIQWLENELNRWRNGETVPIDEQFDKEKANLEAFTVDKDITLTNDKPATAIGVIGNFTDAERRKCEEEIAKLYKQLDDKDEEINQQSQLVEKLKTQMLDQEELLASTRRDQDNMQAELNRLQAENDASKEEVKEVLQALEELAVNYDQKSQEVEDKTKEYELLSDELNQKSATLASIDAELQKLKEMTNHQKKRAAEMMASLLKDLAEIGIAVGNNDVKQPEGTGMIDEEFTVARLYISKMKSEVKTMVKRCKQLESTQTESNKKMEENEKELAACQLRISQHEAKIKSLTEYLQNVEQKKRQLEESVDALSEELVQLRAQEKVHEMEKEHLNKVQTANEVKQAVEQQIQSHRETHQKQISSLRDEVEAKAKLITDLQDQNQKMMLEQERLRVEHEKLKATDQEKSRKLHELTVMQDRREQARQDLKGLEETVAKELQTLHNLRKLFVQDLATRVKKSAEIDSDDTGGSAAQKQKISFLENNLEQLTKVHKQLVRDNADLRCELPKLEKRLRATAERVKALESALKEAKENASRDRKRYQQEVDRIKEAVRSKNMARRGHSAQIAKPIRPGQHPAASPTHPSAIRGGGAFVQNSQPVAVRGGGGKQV
In experiment [6] the test system is BaF3. In words: Cytotoxicity against mouse BaF3 cells expressing […]-RET kinase fusion protein assessed as inhibition of cell proliferation incubated for 72 hrs by CCK8 assay. The experiment is classed as functional, cell-based. The conditions noted are these: BaF3, 72 h. Background: Tetrazolium assays rely on reduction of a dye to a coloured formazan, in cell work by metabolically active cells.

Experiment [7] deals with BaF3. Briefly: Cytotoxicity against mouse BaF3 cells expressing […]-RET kinase-V804M mutant fusion protein assessed as inhibition of cell proliferation incubated for 72 hrs by CCK8 assay. The experiment is classed as functional, cell-based. As to conditions: BaF3, 72 h.
Experiment [8] concerns BaF3. Briefly: Cytotoxicity against mouse BaF3 cells expressing […]-RET kinase-V804L mutant fusion protein assessed as inhibition of cell proliferation incubated for 72 hrs by CCK8 assay. The experiment is classed as functional, cell-based. As to conditions: BaF3, 72 h.
In experiment [9] the test system is BaF3. In words: Cytotoxicity against mouse BaF3 cells expressing […]-RET kinase-G810R mutant fusion protein assessed as inhibition of cell proliferation incubated for 72 hrs by CCK8 assay. The experiment is classed as functional, cell-based. The conditions noted are these: BaF3, 72 h.
The test system of experiment [10] is BaF3. Briefly: Cytotoxicity against mouse BaF3 cells expressing […]-RET kinase-G810S mutant fusion protein assessed as inhibition of cell proliferation incubated for 72 hrs by CCK8 assay. Type of experiment: functional, cell-based. The conditions noted are these: BaF3, 72 h.
For experiment [11], the system named is BaF3. Briefly: Cytotoxicity against mouse BaF3 cells expressing […]-RET kinase-G810C mutant fusion protein assessed as inhibition of cell proliferation incubated for 72 hrs by CCK8 assay. Type of experiment: functional, cell-based. The conditions noted are these: BaF3, 72 h.
In experiment [12] the test system is BaF3. In words: Cytotoxicity against mouse BaF3 cells expressing […]-RET kinase-G810A mutant fusion protein assessed as inhibition of cell proliferation incubated for 72 hrs by CCK8 assay. Type of experiment: functional, cell-based. As to conditions: BaF3, 72 h.
Experiment [13] concerns Proto-oncogene tyrosine-protein kinase receptor Ret (Homo sapiens), P07949 [G810R]. In words: Inhibition of human RET kinase-G810R mutant assessed as residual activity at 0.1 uM using RRRRRRRRRRRVYSTDYYRLFNPS as substrate in presence of [gamma33P]-ATP and 10 uM ATP by radiometric HotSpot assay.
Sequence of Proto-oncogene tyrosine-protein kinase receptor Ret (Homo sapiens), P07949 [G810R] (P07949 whole entry G810R): as the sequence (P07949 whole entry, the tested form may be a part) above, with G810R counted along it
Experiment [14] concerns Proto-oncogene tyrosine-protein kinase receptor Ret (Homo sapiens), P07949 [V804M]. Briefly: Inhibition of human RET kinase-V804M mutant at 0.1 uM using RRRRRRRRRRRVYSTDYYRLFNPS as substrate in presence of [gamma33P]-ATP and 10 uM ATP by radiometric HotSpot assay relative to control.
Sequence of Proto-oncogene tyrosine-protein kinase receptor Ret (Homo sapiens), P07949 [V804M] (P07949 whole entry V804M): as the sequence (P07949 whole entry, the tested form may be a part) above, with V804M counted along it

Sequence of Proto-oncogene tyrosine-protein kinase receptor Ret (Homo sapiens, UniProt P07949, G810R) (P07949 29-1114 G810R limits assumed): as the sequence (P07949 29-1114 V804M limits assumed) above, with M776V, G782R counted along it
Sequence of Proto-oncogene tyrosine-protein kinase receptor Ret (Homo sapiens, UniProt P07949) (P07949 whole entry): as the sequence (P07949 whole entry, the tested form may be a part) above

What is called IC50 is the concentration that inhibits the measured activity by half. `Cc1cn(-c2cc(NC(=O)c3cc(C#Cc4cnc5ccc(OCCN6CCOCC6)nn45)c(C)cc3F)cc(C(C)(C)C#N)c2)cn1`: the IC50 stood at 1300 nM in experiment [1]; 7.4 nM in [2]; 622 nM in [3]; 345 nM in [4]; 43.7 nM in experiment [5]; 100 nM in the experiment on BaF3 [6]. Besides, the half-inhibitory concentration (IC50) in the experiment with BaF3 [7] turned out to be 1600 nM; in the experiment on BaF3 [8], 1800 nM; with BaF3 [9], 400 nM; in the experiment with BaF3 [10], 100 nM; with BaF3 [11] it was 600 nM; in the experiment with BaF3 [12], 50 nM.

For the compound `COc1ccc(Nc2ccc3ncc(C#Cc4cc(C(=O)Nc5cc(CN6CCN(C)CC6)cc(C(F)(F)F)c5)ccc4C)n3n2)cc1`, the half-maximal inhibitory concentration (IC50) stood at 89.8 nM in [1], 0.9 nM in experiment [2] and 137 nM in [3]. Also, in experiment [13], the Activity came to 46.6%.

Consider `COc1ccc(CN2C3CC2CN(c2ccc(-c4cc(OCC(C)(C)O)cn5ncc(C#N)c45)cn2)C3)cn1` [SELPERCATINIB], for which the IC50 in the experiment with BaF3 [6] was determined as 10 nM; with BaF3 [7], 100 nM; in the experiment on BaF3 [8] it was 20 nM; in the experiment with BaF3 [9] it was 2100 nM; in the experiment on BaF3 [10] it was 400 nM; in the experiment on BaF3 [11] it was 5800 nM. In addition, the IC50 in the experiment with BaF3 [12] worked out at 260 nM.

Regarding `CCOC(=O)c1nc2ccc(Nc3cc(C)[nH]n3)nn2c1C#Cc1cc(C(=O)Nc2cc(-n3cnc(C)c3)cc(C(F)(F)F)c2)ccc1C`, the IC50 is over 2000 nM in experiment [1]; 102 nM in experiment [2]; over 2000 nM in [3]; 921 nM in experiment [4]; over 2000 nM in experiment [5].

Consider `CCOC(=O)c1nc2n(c1C#Cc1cc(C(=O)Nc3cc(-n4cnc(C)c4)cc(C(F)(F)F)c3)ccc1C)NC(NC1CC1)C=C2` (stereo not drawn), for which the IC50 with BaF3 [6] came out at 3000 nM; with BaF3 [8], 3300 nM; with BaF3 [9], 3800 nM; in the experiment with BaF3 [10] it was 3000 nM; in the experiment on BaF3 [11], 2900 nM; in the experiment with BaF3 [12], 3800 nM.

Take `CCOC(=O)c1nc2ccc(NCCN3CCCCC3)nn2c1C#Cc1cc(C(=O)Nc2cc(-n3cnc(C)c3)cc(C(C)(C)C#N)c2)c(NCCN2CCCCC2)cc1C`: the concentration for half-maximal inhibition (IC50) came to 900 nM in the experiment with BaF3 [6]; 1600 nM with BaF3 [8]; 1200 nM in the experiment with BaF3 [9]; 1600 nM in the experiment on BaF3 [10]; 1700 nM in the experiment on BaF3 [11]; 1200 nM in the experiment with BaF3 [12].

`Cc1ccc(C(=O)Nc2ccc(CN3CCN(C)CC3)c(C(F)(F)F)c2)cc1C#Cc1cnc2ccc(OCCN3CCOCC3)nn12`: the half-inhibitory concentration (IC50) in experiment [1] was 11 nM; in [2], under 0.5 nM; in experiment [3], 84.5 nM; in [4] it was 478 nM; in experiment [5], 129 nM.

What is called inhibition is the share of the control response that was lost under treatment. Take `Cc1ccc(C(=O)Nc2cc(CN3CCN(C)CC3)cc(C(F)(F)F)c2)cc1C#Cc1cnc2ccc(Cl)nn12`: the IC50 is 19.8 nM in experiment [1], under 0.5 nM in [2] and 281 nM in [3]. In addition, the inhibition in experiment [14] worked out at 100%.

For `Cc1ccc(C(=O)Nc2cc(CN3CCN(C)CC3)cc(C(F)(F)F)c2)cc1C#Cc1cnc2ccc(N3CCOCC3)nn12`, the IC50 in experiment [1] is 41.3 nM; in experiment [2], 0.1 nM; in [3], 47.8 nM. Also, the Activity in experiment [13] was found to be 26.4%.

With `Cc1ccc(C(=O)Nc2ccc(CN3CCN(C)CC3)c(C(F)(F)F)c2)cc1C#Cc1cnc2ccc(OCCNC(C)C)nn12`, the IC50 in experiment [1] is 25.3 nM; in [2], under 0.5 nM; in experiment [3], 19.4 nM; in experiment [4], 3.6 nM; in experiment [5], 1.2 nM.

The values are drawn from ChEMBL document CHEMBL5614446, “Side Chain Investigation of Imidazopyridazine as a Hinge Binder for Targeting Actionable Mutations of RET Kinase” (ACS Med Chem Lett, 2024).
